Measurements taken from patent US8889411B2, “Modulation of stem and progenitor cell differentiation, assays, and uses thereof” (Anthrogenesis Corporation, priority 2002, dated 2014).

Legend:
[1] = system: Murine Sca+Lin− hematopoietic progenitor cells; test: Generation of murine dendritic cells from bone marrow Sca+Lin− progenitors, cell surface phenotype; format: cell-based, mouse (C57BL/6)
From the text: Mouse bone marrow from inbred C57BL/6 mice was obtained from Clonetics. Hematopoietic Sca+Lin− progenitors were enriched using SpinSep murine progenitor enrichment cocktail (StemCell Technologies) and cultured in Iscove's MDM with BIT 95000 (StemCell Technologies) in the presence of murine growth factors SCF, Flt3L, GM-CSF and M-CSF for 9 days, to promote expansion of Sca+ cells and a DC precursor phenotype and then in the presence of GM-CSF and TNF-α for 3 additional days to drive the cells to an immature DC phenotype. Enriched Sca+Lin− cells were cultured in the presence of DMSO (0.1%), ACTIMID™ at 10 μM or all-trans retinoic acid (ATRA) (ICN Biomedicals) at 10 μM from day 0. Compounds were added to cells at day 0 and day 9.
Analysis of Murine cell surface phenotype: Murine cells were processed for double staining (14 min at RT) at day 9 and day 12; using FITC and PE conjugated mAbs. Antibodies used were from BD Pharmingen: Sea (PE), CD11b (FITC), Gr-1 (FITC), CD86 (PE), CD14 (PE), CD80 (PE), I-A^b (PE), CD40 (PE) and CD32.1/16.1 (FITC) from Miltenyi. Fluorescence analysis was performed on a FACScan flow cytometer (Coulter) after acquisition of 10,000 events.

[2] = system: Human Cord Blood CD34+ Cells; test: FACS analysis of proliferation and differentiation of cord blood CD34+ cells cultured with IL3, G-CSF and Kit-ligand; format: cell-based; settings: for CD11b+ Cell Population / CD34+CD38+ Cell Population / CD34+CD38− Cell Population: 7 days
Description: CB CD34+ cells were initiated at 4×10^4 cells/ml in a 24-well plate in 20% FCS IMDM (fetal calf serum/Iscove's Modified Dulbecco's Medium) supplemented with cytokines (1 L3, GCSF and Kit-ligand) (R&D Systems, Inc.). Thalidomide (Thal), ACTIMID™ or REVIMID™ were included in the culture at three different concentrations: 5 μg/ml, 1 μg/ml and 0.3 μg/ml. The same volumes of DMSO were used as controls. A negative control without, any compound was also used (indicated by “none” in FIGS. 3-7). Cells were cultured at 37° C. and 5% CO2 in a humidified incubator for 7 days. Cells were then harvested from each well.
The total cell number from each well was determined by counting in a CELL-DYN® 1700 (Abbott Diagnostics) and the expression of CXCR4, CD45, CD34, CD38, CD 1 lb and Gly-A expression was analyzed by FACS (fluorescence-activated cell sorting) staining (FIGS. 3-7).
CB cells from two different donors (CB2276 and CB2417) were cultured, assayed and analyzed separately (Table 1).

[3] = system: Cord blood CD34+ hematopoietic progenitor cells; test: Colony forming unit (CFU) generation from cord blood CD34+ cells; format: cell-based, human; settings: IL-3, G-CSF, kit-ligand, vs DMSO
Description: FIG. 1. Bar graph indicating results of culturing cord blood CD34+ cells in the presence of Thalidomide (THD), ACTIMID™, and REVIMID™ at concentrations of 1 μg/ml and 10 μg/ml. An equal volume of DMSO was used as a negative control. Hematopoietic colonies of burst forming units-erythroid (BFU-E), colony forming units-erythroid (CFU-E), colony forming units-granulocyte macrophage (CFU-GM) and total numbers of colonies (CFU-Total) were scored under the light microscope at day 14 of culture. Y-axis: numbers of colonies. See Section 6.1 for details.
Cord blood CD34+ hematopoietic progenitor cells were plated in 96 well cultivation dishes at a density of 1000 cells per well in IMDM supplemented with 20% fetal calf serum and cytokines (IL-3, G-CSF and kit-ligand (R&D Systems, Inc.) The cells were exposed to Thalidomide (Thal), ACTIMID™ and REVIMID™, or DMSO (a control compound), and allowed to culture for 6 days. […] After culturing, cells were stained and sorted with a fluorescence activated. cell sorter (FACS). 400 μL of stained cells were harvested and diluted to 1.0 ml with 1% fetal calf serum in phosphate buffered saline (PBS). Cells were counted to determine the effect of modulation of stem cell differentiation.

[4] = system: allogenic CD3+ T cells stimulated by CD34+-derived DC cells; test: T cell proliferation assay (Mixed Leucocyte Reaction); format: cell-based, human; settings: compared to DMSO control
Description: T cell proliferation assay: After 13 days of culture, CD34^+-derived DC cells were collected, and after treatment with mitomycin C (50 μg/ml, Sigma), used as stimulators cells for allogenic adult CD3^+ T cells purified from peripheral blood mononuclear cells (PBMCs) from healthy volunteers. CD3^+ T responder cells were used at a concentration of 5×10^4 cells/well. Stimulators cells were added in graded doses to the T cells in black 96-well flat bottom, clear bottom tissue culture plates for chemiluminescence detection. Cultures were performed in RPMI 1640 medium supplemented with 10% heat-inactivated FBS, glutamine and Penicillin-streptomycin. After 6 days of culture, cell proliferation was measured with the BrdU chemiluminescence assay (Roche, Nutley N.J.), following manufacturer instructions. Results are presented as the mean±SD obtained from triplicate cultures.

[5] = 10 μM, added at day 0 and day 9

Q: What does the source list for `Nc1cccc2c1C(=O)N(C1CCC(=O)NC1=O)C2=O` (stereo not drawn) [ACTIMID™, 4-(Amino)-2-(2,6-dioxo(3-piperidyl))-isoindoline-1,3-dione]?
A: cell surface marker expression by day 9 ([1]; 10 μM from day 0): no significant effect; CD11b expression by day 12 [1, 5]: upregulation; CD86 and bright I-A^b expression by day 12 [1, 5]: downregulation; expression of CD40 and CD80 ([1]; 10 μM, not shown): no effects; up-regulation (increased proliferation) of CD34+ cells ([2]; CB2276 and CB2417 cultures): up-regulation; expression of CXCR4 ([2]; FACS analysis of surface proteins): inhibitory effect; yield of cells ([2]; IL-3, KL and G-CSF, compared with the DMSO control): slightly higher number of cells; effect on the proliferation of CD34+ cells ([2]; IL-3, KL and G-CSF, compared with the negative control (none)): do not have a significant effect; CD11b+ Cell Population ([2]; donor CB2276, 0.3 μg/ml): 6.9%; CD34+CD38+ Cell Population ([2]; donor CB2276, 0.3 μg/ml): 0.2; CD34+CD38− Cell Population ([2]; donor CB2276, 0.3 μg/ml): 5.9; CD11b+ Cell Population ([2]; donor CB2276, 1 μg/ml): 3.8%; CD34+CD38+ Cell Population ([2]; donor CB2276, 1 μg/ml): 0.2; CD34+CD38− Cell Population ([2]; donor CB2276, 1 μg/ml): 15.0; CD11b+ Cell Population ([2]; donor CB2276, 5 μg/ml): 1.6%; CD34+CD38+ Cell Population ([2]; donor CB2276, 5 μg/ml): 0.2; CD34+CD38− Cell Population ([2]; donor CB2276, 5 μg/ml): 17.3; CD11b+ Cell Population ([2]; donor CB2417, 0.3 μg/ml): 8.4%; CD34+CD38+ Cell Population ([2]; donor CB2417, 0.3 μg/ml): 0.2; CD34+CD38− Cell Population ([2]; donor CB2417, 0.3 μg/ml): 5.9; CD11b+ Cell Population ([2]; donor CB2417, 1 μg/ml): 3.9%; CD34+CD38+ Cell Population ([2]; donor CB2417, 1 μg/ml): 0.8; CD34+CD38− Cell Population ([2]; donor CB2417, 1 μg/ml): 12.0; CD11b+ Cell Population ([2]; donor CB2417, 5 μg/ml): 2.5%; CD34+CD38+ Cell Population ([2]; donor CB2417, 5 μg/ml): 0.1; CD34+CD38− Cell Population ([2]; donor CB2417, 5 μg/ml): 14.7; CD38 status of the majority of CD34+ and CD34− cells ([2]; treated cell populations): CD38−; level of CD11b expression by mean immunofluorescence (MIF) ([2]; treated cells): decreased; generation of erythropoietic colonies (BFU-E and CFU-E) [3]: suppress; generation of leukocyte and platelet forming colonies (CFU-GM) [3]: augmenting; total colony forming unit (CFU-Total) production [3]: enhancing; capacity to stimulate the proliferation of T-cells ([4]; compound from day 1 to day 12): reduced capacity; capacity to stimulate the proliferation of T-cells ([4]; compound from day 6 to day 12): comparable
